# According to patent US20130005718A1 (priority 2009, published 2013):
# Values joined by “and” are separate entries in the source; they are usually repeats but may differ in a detail not shown here. Identical values can stand only once. “Also recorded” adds a separate entry of the source. Like-named read-outs stand apart in the source and are kept apart here.
# How the values were obtained:
# HCN1 channels = molecular target: T1, HCN1 channels (Mus musculus, UniProt O88704); assay: Two-electrode voltage clamp (TEVC) of HCN1 channel gating in Xenopus oocytes; format: cell-based, murine; conditions: for HCN isoform preference (words): HCN1 versus HCN2, 3 or 4
# T1 construct: expressed in transfected cells; host or cells: Xenopus oocytes (cRNA injection)
# GABAA-Rs = conditions: cited from earlier work
# [1] = in vivo; cited from earlier work
# HCN2 = HCN2 (Mus musculus, UniProt O88703); conditions: 20 μM, n=6
# Procedure: (§1) cDNA encoding murine (HCN1, 2 and 4) and human (HCN3) HCN channels were subcloned into pGH19 (HCN1 and 4) or pGHE (HCN2 and HCN3) vectors and amplified in STBL2 cells (Invitrogen Corporation, Carlsbad, Calif.). cRNA was transcribed from NheI (HCN1, HCN3 and HCN4) or SphI (HCN2) linearized DNA using T7 RNA polymerase (Message Machine; Ambion, Houston, Tex.). 11-50 ng RNA was injected into each Xenopus oocyte.
# (§2) Recordings were made from Xenopus oocytes 2-5 days after cRNA injection. Cells were maintained in L-15 media without ficoll (Specialty Media, Phillipsburg, N.J.) at 17° C. until use.
# (§3) Two microelectrode voltage clamp (TEVC) data, acquired using a Warner Instruments (Hamden, Conn.) OC-725C amplifier, were recorded with Pulse software (HEKA Elektronik, Lambrecht/Pfalz, Germany) following filtering of the wide bandwidth output of the clamp at 2.5 kHz (with a Frequency Devices 902 8-pole Bessel filter) and digitization at 5 kHz using an ITC-18 interface (Instrutech Corporation, Port Washington, N.Y.).
# (§4) Microelectrodes were fabricated from 1B120-F4 borosilicate glass (World Precision Instruments, Sarasota, Fla.) and had resistances of 0.1-0.5 MΩ (I passing) and 1-4 MΩ (V sensing) when filled with 3 M KCl. The Ag—AgCl ground wire(s) of the active virtual ground circuit were connected to the bath solution by 3M KCl-2% agar salt bridges placed downstream of, but close to, the oocyte. Recordings were obtained at room temperature (22-24° C.).
# HCN3 = HCN3 (Homo sapiens, UniProt Q9P1Z3); conditions: 20 μM, n=6
# Procedure: as §1, §2, §3, §4
# HCN4 = HCN4 (Mus musculus, UniProt O70507); conditions: 20 μM, n=4
# Procedure: as §1, §2, §3, §4
# [2] = system: PNL-induced mechanical allodynia and hyperalgesia; assay: Von Frey fiber test after partial sciatic nerve ligation (PNL); format: in vivo, C57 Black/6J mice
# [3] = system: PNL-induced thermal hyperalgesia; assay: Hind paw withdrawal latency (HPWL) to heat source after PNL; format: in vivo, C57 Black/6J mice; conditions: i.p., 15% heat stimulus
# righting reflex [4] = conditions: i.p. cumulative up to 60 mg/kg
# [5] = variously reported; cited from earlier work
# righting reflex [6] = conditions: cited from earlier work
# [7] = cited from earlier work
# [8] = HCN1 V1/2 dose-response, relative to 2,6-DTBP
# T1 sequence (O88704 whole entry, canonical isoform): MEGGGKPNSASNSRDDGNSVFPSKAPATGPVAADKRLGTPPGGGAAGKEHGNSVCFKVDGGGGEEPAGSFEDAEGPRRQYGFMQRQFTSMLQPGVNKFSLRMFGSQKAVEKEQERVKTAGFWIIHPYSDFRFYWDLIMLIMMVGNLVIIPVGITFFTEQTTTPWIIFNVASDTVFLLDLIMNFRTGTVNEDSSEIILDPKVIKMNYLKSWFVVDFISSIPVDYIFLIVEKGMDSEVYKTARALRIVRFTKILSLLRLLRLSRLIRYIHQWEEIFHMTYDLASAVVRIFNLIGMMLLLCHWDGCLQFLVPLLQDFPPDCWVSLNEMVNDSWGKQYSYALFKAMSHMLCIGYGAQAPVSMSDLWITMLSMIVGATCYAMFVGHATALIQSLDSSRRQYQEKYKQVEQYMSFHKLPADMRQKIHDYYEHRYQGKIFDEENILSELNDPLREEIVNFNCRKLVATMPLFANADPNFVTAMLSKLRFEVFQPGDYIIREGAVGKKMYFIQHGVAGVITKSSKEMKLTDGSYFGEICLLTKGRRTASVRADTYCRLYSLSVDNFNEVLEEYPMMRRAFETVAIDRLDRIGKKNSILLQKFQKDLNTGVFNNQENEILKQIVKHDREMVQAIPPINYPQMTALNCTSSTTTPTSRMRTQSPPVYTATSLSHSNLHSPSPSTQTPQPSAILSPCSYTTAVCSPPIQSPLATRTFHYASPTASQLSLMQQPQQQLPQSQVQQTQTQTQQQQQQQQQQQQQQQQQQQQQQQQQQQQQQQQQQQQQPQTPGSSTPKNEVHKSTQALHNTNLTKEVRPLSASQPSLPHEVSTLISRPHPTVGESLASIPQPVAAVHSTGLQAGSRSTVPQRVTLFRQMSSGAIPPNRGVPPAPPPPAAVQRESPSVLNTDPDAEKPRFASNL
# HCN3, sequence (Q9P1Z3 whole entry): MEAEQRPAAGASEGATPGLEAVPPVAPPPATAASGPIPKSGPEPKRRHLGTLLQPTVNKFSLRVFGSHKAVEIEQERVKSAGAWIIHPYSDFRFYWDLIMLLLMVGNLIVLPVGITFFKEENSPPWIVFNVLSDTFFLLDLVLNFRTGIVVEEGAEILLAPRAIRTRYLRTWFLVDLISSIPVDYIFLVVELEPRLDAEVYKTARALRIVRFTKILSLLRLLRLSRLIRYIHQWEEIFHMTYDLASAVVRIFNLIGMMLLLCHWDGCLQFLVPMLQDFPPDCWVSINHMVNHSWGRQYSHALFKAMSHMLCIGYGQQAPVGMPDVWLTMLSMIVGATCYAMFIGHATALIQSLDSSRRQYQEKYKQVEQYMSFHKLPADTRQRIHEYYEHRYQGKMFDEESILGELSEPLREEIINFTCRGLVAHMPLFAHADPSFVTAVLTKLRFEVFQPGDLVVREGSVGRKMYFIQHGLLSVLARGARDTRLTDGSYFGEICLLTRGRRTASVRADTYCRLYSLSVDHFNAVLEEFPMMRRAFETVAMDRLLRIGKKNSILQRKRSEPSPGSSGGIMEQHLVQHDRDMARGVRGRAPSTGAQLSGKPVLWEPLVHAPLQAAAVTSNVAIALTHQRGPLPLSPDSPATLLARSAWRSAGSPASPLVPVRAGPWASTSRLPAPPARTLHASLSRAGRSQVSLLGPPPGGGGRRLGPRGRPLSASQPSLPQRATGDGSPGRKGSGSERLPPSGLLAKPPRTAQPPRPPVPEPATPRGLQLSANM
# HCN4, sequence (O70507 whole entry): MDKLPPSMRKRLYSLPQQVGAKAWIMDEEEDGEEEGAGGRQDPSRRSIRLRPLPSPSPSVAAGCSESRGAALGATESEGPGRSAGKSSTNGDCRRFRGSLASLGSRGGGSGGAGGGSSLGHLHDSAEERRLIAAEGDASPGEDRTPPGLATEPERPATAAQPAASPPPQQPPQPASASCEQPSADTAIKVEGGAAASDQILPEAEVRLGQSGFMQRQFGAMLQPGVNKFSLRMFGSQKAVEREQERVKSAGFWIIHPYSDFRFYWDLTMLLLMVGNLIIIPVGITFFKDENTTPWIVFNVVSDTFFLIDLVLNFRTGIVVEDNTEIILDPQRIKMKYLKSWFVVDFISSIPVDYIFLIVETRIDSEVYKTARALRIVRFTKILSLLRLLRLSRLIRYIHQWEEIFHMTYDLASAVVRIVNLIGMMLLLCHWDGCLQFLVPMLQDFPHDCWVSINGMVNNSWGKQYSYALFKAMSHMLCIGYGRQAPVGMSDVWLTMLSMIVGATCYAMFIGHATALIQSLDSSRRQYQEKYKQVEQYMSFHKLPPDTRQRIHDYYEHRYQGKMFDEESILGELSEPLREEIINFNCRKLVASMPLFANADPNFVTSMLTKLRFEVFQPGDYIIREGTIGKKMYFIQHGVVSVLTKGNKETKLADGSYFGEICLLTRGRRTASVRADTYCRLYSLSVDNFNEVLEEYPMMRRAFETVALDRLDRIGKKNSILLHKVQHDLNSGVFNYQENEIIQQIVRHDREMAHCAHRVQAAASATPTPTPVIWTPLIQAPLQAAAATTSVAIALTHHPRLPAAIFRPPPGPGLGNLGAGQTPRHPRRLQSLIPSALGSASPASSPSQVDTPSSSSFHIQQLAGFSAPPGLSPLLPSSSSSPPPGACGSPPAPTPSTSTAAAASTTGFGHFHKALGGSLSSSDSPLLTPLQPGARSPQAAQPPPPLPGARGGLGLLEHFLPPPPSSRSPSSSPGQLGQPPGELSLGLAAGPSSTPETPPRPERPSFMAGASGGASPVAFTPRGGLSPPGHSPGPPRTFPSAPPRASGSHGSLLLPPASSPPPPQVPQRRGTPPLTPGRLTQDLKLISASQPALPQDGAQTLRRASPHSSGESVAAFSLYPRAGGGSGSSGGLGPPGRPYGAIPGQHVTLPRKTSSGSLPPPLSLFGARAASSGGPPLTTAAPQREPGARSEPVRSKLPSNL
# HCN2, sequence (O88703 whole entry): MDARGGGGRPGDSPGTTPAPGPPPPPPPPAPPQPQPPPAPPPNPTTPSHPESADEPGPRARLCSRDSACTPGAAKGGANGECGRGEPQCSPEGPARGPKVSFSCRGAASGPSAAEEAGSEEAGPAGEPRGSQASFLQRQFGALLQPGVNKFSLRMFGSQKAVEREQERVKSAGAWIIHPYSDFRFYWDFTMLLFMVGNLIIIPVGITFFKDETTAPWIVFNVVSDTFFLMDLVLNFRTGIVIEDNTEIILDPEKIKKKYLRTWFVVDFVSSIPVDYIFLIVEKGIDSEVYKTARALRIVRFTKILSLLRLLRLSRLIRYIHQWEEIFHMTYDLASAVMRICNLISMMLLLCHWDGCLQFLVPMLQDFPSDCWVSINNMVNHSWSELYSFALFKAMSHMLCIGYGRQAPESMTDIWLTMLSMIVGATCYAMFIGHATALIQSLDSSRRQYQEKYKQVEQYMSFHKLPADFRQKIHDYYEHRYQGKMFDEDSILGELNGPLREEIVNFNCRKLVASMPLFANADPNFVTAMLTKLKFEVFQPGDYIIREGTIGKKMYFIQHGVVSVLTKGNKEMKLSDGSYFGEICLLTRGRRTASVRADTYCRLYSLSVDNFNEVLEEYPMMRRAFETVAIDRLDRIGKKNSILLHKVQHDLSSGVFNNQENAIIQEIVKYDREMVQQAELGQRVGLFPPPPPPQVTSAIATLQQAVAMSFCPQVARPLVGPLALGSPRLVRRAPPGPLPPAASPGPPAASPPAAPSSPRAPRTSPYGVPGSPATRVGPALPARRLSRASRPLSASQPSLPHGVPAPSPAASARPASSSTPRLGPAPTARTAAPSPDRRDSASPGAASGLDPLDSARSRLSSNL
structure (smiles),measurement,setting,value
"CCC(C)c1cccc(C(C)CC)c1O (stereo not shown) [2,6-DSBP, 2,6-di-sec-butylphenol]",HCN1 antagonism,HCN1 channels,weak HCN1 antagonist
same,"offset of the 2,6-DTBP Hill fit line needed to describe the data",HCN1 channels; [8],15 fold
same,allosteric modulation of GABAA-Rs,GABAA-Rs,potent allosteric activators of the chloride channels
same,anesthetic activity,[1],potent anesthetics
"CCC(C)c1ccc(O)c(C(C)CC)c1 (stereo not shown) [2,4-DSBP, 2,4-di-sec-butylphenol]","offset of the 2,6-DTBP Hill fit line needed to describe the data",HCN1 channels; [8],23 fold
same,allosteric modulation of GABAA-Rs,GABAA-Rs,effective agonist of GABAA-Rs; also recorded: potent allosteric activators of the chloride channels
same,anesthetic activity,[1],potent anesthetics
"CC(C)(C)c1ccc(O)c(C(C)(C)C)c1 [2,4-DTBP, 2,4-di-tert-butylphenol]",HCN1 antagonism,HCN1 channels,effective antagonist of HCN1
same,"offset of the 2,6-DTBP Hill fit line needed to describe the data",HCN1 channels,2 fold
same,HCN isoform preference (words),HCN1 channels,"preferentially inhibit HCN1 with little efficacy against HCN2, 3 or 4 channels"
same,allosteric modulation of GABAA-Rs,GABAA-Rs,ineffective
CC(C)c1cccc(C(C)C)c1O [propofol],EC50,"HCN1 channels; EC50 for hyperpolarization of V1/2 of HCN1 gating (Hill fit), 20 min incubation, Xenopus oocytes, TEVC",7 to 13 µM and 13 µM and ~13 µM
same,HCN isoform preference (words),HCN1 channels,"preferentially inhibits HCN1 with little efficacy against HCN2, 3 or 4 channels"
same,apparent stoichiometry h (Hill coefficient),HCN1 channels; Hill fit of dose-response,1.1
same,concentration at which shift in HCN1 V1/2 was significant,HCN1 channels; versus DMSO control,≥ 3 µM
same,ΔV1/2 of HCN2,HCN2,−9.1 mV
same,ΔV1/2 of HCN3,HCN3,−0.6 mV
same,ΔV1/2 of HCN4,HCN4,0.1 mV
same,difference between PW IPSI and PW CONTRA,[2]; 20 mg/kg i.p.,significantly reduced
same,PW IPSI response,[2]; 60 mg/kg i.p. cumulative,indistinguishable from the control value of PW CONTRA
same,"effect on PW CONTRA, mechanical nociception",[2]; 20 to 60 mg/kg i.p.,no statistically significant effect
same,neuropathic analgesia occurs at doses lower than hypnosis/anesthesia,[2]; i.p.,3-10 fold and 3 to 10 fold
same,mechanical hyperalgesia/allodynia in ipsilateral paw,"[2]; i.p. cumulative dosing, post-PNL mice",markedly reduced the mechanical hyperalgesia observed in the ipsilateral paw; also recorded: selectively suppresses partial sciatic nerve ligation (PNL)-induced mechanical allodynia and hyperalgesia
same,PW IPSI as a function of control PW CONTRA (ratio) after drug,"[2]; i.p., 2.5 to 4 g fibers averaged, 3.3 before drug, unity = complete amelioration",1.6
same,reversal of the neuropathic phenotype,"[2]; subhypnotic i.p. doses, 2.5 to 4 g fibers averaged",about 75%
same,"mechanical threshold, Logit transformation (allodynia, words)",[2]; threshold set at PW of 0.1,selectively restored the mechanical threshold to that observed in the uninjured paw
same,"thermal hyperalgesia, ipsilateral HPWL (words)",[3],powerfully and preferentially relieved neuropathic thermal hyperalgesia; also recorded: relieve the neuropathic behavior; also recorded: selectively ameliorate PNL-induced thermal hyperalgesia
same,"thermal nociception, contralateral HPWL",[3],without significantly altering nociceptive behavior
same,loss of righting reflex,righting reflex [4],No animals lost their righting reflex
same,Plasma [propofol] Total,"Engdahl et al., 1998, calculated with MW 178.3",12.3 µM
same,estimated serum free concentration evoking analgesia,estimated from 3 to 10 fold lower doses than anesthesia,0.1 to 0.3 µM
same,CSF concentration required for anesthesia relative to plasma,from Table 2,approximately one-tenth
same,aqueous solubility limit,[5],864 to 1740 µM
same,i.p. dose required for obviation of righting reflex,righting reflex [6]; i.p.,greater than 100 mg/kg
same,intravenous dose for anesthesia,"righting reflex [6]; mice, i.v.",5 mg/kg
same,Plasma [propofol] Total,"[7]; Engdahl et al., 1998",2.2 µg/mL
same,steady-state free concentration in the plasma,[7]; during general anesthesia,~1 µM
